From PubChem BioAssay (NCI)
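GI50 marks 50% less growth. TGI: total growth inhibition.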

What was measured:
Experiment in all cases: DTP human tumour cell line panel, 384-well format
NCI-H23 lung = test system: NCI-H23 lung
NCI-H322M lung = test system: NCI-H322M lung
NCI-H460 NSCLC = test system: NCI-H460 NSCLC
NCI-H522 lung = test system: NCI-H522 lung
NCI/ADR-RES ovarian = test system: NCI/ADR-RES ovarian
OVCAR-3 ovarian = test system: OVCAR-3 ovarian
OVCAR-4 ovarian = test system: OVCAR-4 ovarian
OVCAR-5 ovarian = test system: OVCAR-5 ovarian
OVCAR-8 ovarian = test system: OVCAR-8 ovarian
PC-3 prostate = test system: PC-3 prostate
RPMI-8226 leukemia = test system: RPMI-8226 leukemia
RXF 393 renal = test system: RXF 393 renal
SF-268 CNS = test system: SF-268 CNS
SF-295 CNS = test system: SF-295 CNS
SF-539 CNS = test system: SF-539 CNS
SK-MEL-28 melanoma = test system: SK-MEL-28 melanoma
SK-MEL-5 melanoma = test system: SK-MEL-5 melanoma
SK-OV-3 ovarian = test system: SK-OV-3 ovarian
SN12C renal = test system: SN12C renal
SNB-19 CNS = test system: SNB-19 CNS
SNB-75 CNS = test system: SNB-75 CNS
SR leukemia = test system: SR leukemia
T-47D breast = test system: T-47D breast
TK-10 renal = test system: TK-10 renal
U251 glioblastoma = test system: U251 glioblastoma
UACC-257 melanoma = test system: UACC-257 melanoma
UACC-62 melanoma = test system: UACC-62 melanoma

With `CN(C)Cc1c(C(=O)NCCOc2ccc(C(=O)NO)cc2)oc2ccccc12` the GI50 (NCI-H23 lung) was 267 nM, the TGI (NCI-H23 lung) was 1370 nM and the GI50 (NCI-H322M lung) was 180 nM. It also gave a TGI (NCI-H322M lung) of 713 nM, a GI50 (NCI-H460 NSCLC) of 135 nM and a TGI (NCI-H460 NSCLC) of 1040 nM. The GI50 (NCI-H522 lung) was 71.3 nM, the TGI (NCI-H522 lung) was 571 nM and the GI50 (NCI/ADR-RES ovarian) was 387 nM. The TGI (NCI/ADR-RES ovarian) was 1840 nM, the GI50 (OVCAR-3 ovarian) was 176 nM and the TGI (OVCAR-3 ovarian) was 626 nM. It also gave a GI50 (OVCAR-4 ovarian) of 213 nM, a TGI (OVCAR-4 ovarian) of 495 nM and a GI50 (OVCAR-5 ovarian) of 57.7 nM. For the same compound, the TGI (OVCAR-5 ovarian) was 212 nM, the GI50 (OVCAR-8 ovarian) was 46.9 nM and the TGI (OVCAR-8 ovarian) was 1130 nM. It also gave a GI50 (PC-3 prostate) of 165 nM, a TGI (PC-3 prostate) of 439 nM and a GI50 (RPMI-8226 leukemia) of 11.9 nM. It also gave a TGI (RPMI-8226 leukemia) of 26.2 nM, a GI50 (RXF 393 renal) of 291 nM and a TGI (RXF 393 renal) of 1130 nM. For the same compound, the GI50 (SF-268 CNS) was 197 nM, the TGI (SF-268 CNS) was 604 nM and the GI50 (SF-295 CNS) was 161 nM. It also gave a TGI (SF-295 CNS) of 335 nM, a GI50 (SF-539 CNS) of 285 nM and a TGI (SF-539 CNS) of 2100 nM. It also gave a GI50 (SK-MEL-28 melanoma) of 171 nM, a TGI (SK-MEL-28 melanoma) of 561 nM and a GI50 (SK-MEL-5 melanoma) of 132 nM. The TGI (SK-MEL-5 melanoma) was 278 nM, the GI50 (SK-OV-3 ovarian) was 175 nM and the TGI (SK-OV-3 ovarian) was 745 nM. It also gave a GI50 (SN12C renal) of 130 nM, a TGI (SN12C renal) of 392 nM and a GI50 (SNB-19 CNS) of 322 nM. The TGI (SNB-19 CNS) was 1120 nM, the GI50 (SNB-75 CNS) was 310 nM and the TGI (SNB-75 CNS) was 2820 nM. It also gave a GI50 (SR leukemia) of 31.7 nM, a TGI (SR leukemia) of 136 nM and a GI50 (T-47D breast) of 136 nM. The TGI (T-47D breast) was 300 nM, the GI50 (TK-10 renal) was 184 nM and the TGI (TK-10 renal) was 475 nM. It also gave a GI50 (U251 glioblastoma) of 155 nM, a TGI (U251 glioblastoma) of 332 nM and a GI50 (UACC-257 melanoma) of 43.2 nM. For the same compound, the TGI (UACC-257 melanoma) was 194 nM, the GI50 (UACC-62 melanoma) was 112 nM and the TGI (UACC-62 melanoma) was 256 nM.
